Experiments:
melanoma-16 = assay: Example 8: mice inoculated with melanoma-16; format: in vivo; conditions: for surviving mice in which no blastomas were ascertained / surviving mice with blastomas of approximately 0.3×0.2 mm: 36th day, 5 mg as a drink; for mice with isolated pulmonal metastases at dissection: surviving mice killed on the 36th day
[1] = test system: filtrate formed from melanoma 16; assay: Example 6: filtrate from melanoma 16 in the polarisation microscope; conditions: filtrate with the preparation; without it the light polarization is slight
Protocol: A filtrate formed from melanoma 16 (10 ml) was accommodated in a quartz vessel and detected in the polarisation microscope. Thereafter, sodium salt (O.F.1) was introduced into the filtrate, and a repeat detection was carried out in the polarisation microscope.

[2] = target: T1, β-amyloid (protein) of the blood plasma (Homo sapiens, UniProt P05067); assay: Example 4: β-amyloid of the blood plasma in test tube; format: biochemical
T1 construct: Into a test tube with β-amyloid (protein) of the blood plasma (pH=7.4); from tissue; host or cells: blood plasma
Protocol: Into a test tube with β-amyloid (protein) of the blood plasma (pH=7.4) with a concentration of 0.1 mmol/ml, three drops of 0.1% sodium salt aqueous solution (called O.F.1) are introduced. The test tube was thermostatically controlled at a temperature of 37° C. After 15 minutes, the protein concentration and the pH value of the blood plasma were measured. The protein concentration amounted to 0.03 mmol/ml, and the pH value amounted to 7.2.

[3] = test system: cancer cells PC-3 (prostate carcinoma); assay: Example 1: mitochondrial membranes of cancer cells PC-3 in test tubes; format: cell-based; conditions: PC-3, dilution 10^−5 mmol/l, 24 hours at 37° C.
Protocol: After thermostatically controlling the aforementioned test tubes in the course of 24 hours at a temperature of 37° C., the contents were analyzed.

[4] = test system: plasma of the blood of a sarcoma patient; assay: Example 5: plasma of a sarcoma patient in the polarisation microscope; conditions: plasma with aqueous solution of the salt; dried plasma without it: light diffusion
Protocol: The blood of a sarcoma patient (10 ml) was centrifuged. A proportion of plasma was dried and detected in the polarisation microscope. Into the remaining proportion of plasma, an aqueous solution of lithium salt of MCPA acid was introduced, and the mixture was also detected in the polarization microscope.

[5] = test system: adenocarcinoma of the prostate gland; assay: Example 9: patient K., adenocarcinoma of the prostate gland, ultrasound, PSA and blood counts; format: in vivo, human; set-up: prostate had become smaller by (ultrasound): dose or concentration left out as unconfirmed
Protocol: An ultrasound test on 8 Aug. […] A PSA test on 8 Aug.
The patient declined an operation and chemotherapy. The patient was treated with the drug. On 9 Aug. […] The treatment lasted 10 days.

[6] = target: T2, Transthyretin (protein) of the blood plasma (Homo sapiens, UniProt P02766); assay: Example 3: Transthyretin of the blood plasma in test tube; format: biochemical
T2 construct: Transthyretin (protein) of the blood plasma; from tissue; host or cells: blood plasma
Protocol: Into a test tube (10 ml) with Transthyretin (protein) of the blood plasma (pH=7.0) in a concentration of 0.05 mmol/ml, four drops of 0.1% MCPA aqueous solution were introduced. The test tube was thermostatically controlled at a temperature of 37° C. After 15 minutes, the concentration of Transthyretin and the pH value of the blood plasma were measured. Transthyretin was not found, and the pH value was 6.0.

hepatitis C = assay: Example 12: patient N., hepatitis C, hepatargy and ascites, symptoms and blood counts; format: in vivo, human; conditions: after 2 weeks (250 mg twice a day)

T1 sequence (P05067 672-711 limits assumed): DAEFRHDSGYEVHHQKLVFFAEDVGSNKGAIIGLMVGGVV

## Cc1cc(Cl)ccc1OCC(=O)[O-].[Na+] [O.F.1]
melanoma-16
  surviving mice in which no blastomas were ascertained: one
  surviving mice with blastomas of approximately 0.3×0.2 mm: 8 mice
  mice with isolated pulmonal metastases at dissection: 4 mice
melanoma-16; single dose of 5 mg as a drink
  mice died on the 23rd day: one
  mice died on the 26th day: one
  mice died on the 30th day: 1 mice
[1]
  observation in the polarisation microscope: pronounced polarization
[2]; after 15 minutes at 37° C., initial pH=7.4
  pH value of the blood plasma: 7.2
[2]; three drops of 0.1% aqueous solution, 37° C., after 15 minutes, initial 0.1 mmol/ml
  protein (β-amyloid) concentration: 0.03 mmol/mL

## COc1cccc2c1C(=O)c1c(O)c3c(c(O)c1C2=O)C[C@@](O)(C(=O)CO)C[C@@H]3O[C@H]1C[C@H](N)[C@H](O)[C@H](C)O1 [Adriamycin, reference compound]
[3]
  mitochondrial membranes of cancer cells (appearance): membrane swelling
melanoma-16; single dose of 5 mg as a drink
  mice alive on the 36th day of the test: 2 mice

## Cc1cc(Cl)ccc1OCC(=O)[O-].[Li+] [lithium salt of MCPA acid]
[4]
  observation in the polarisation microscope: double refraction of rays

## Cc1cc(Cl)ccc1OCC(=O)O [4-chlorine-2-methyl phenoxyacetic acid]
[5]; 10 days of treatment
  pains during urination: became less
[5]; 10 days, before approximately 90 cm^3
  prostate had become smaller by (ultrasound): 30%
melanoma-16
  surviving mice in which no blastomas were ascertained: 3 mice
  surviving mice with blastomas of approximately 0.3×0.2 mm: 3 mice
  mice with isolated pulmonal metastases at dissection: 2 mice
melanoma-16; single dose of 5 mg as a drink
  mice died on the 23rd day: 2 mice
[6]; after 15 minutes at 37° C., initial pH=7.0
  pH value of the blood plasma: 6.0
[6]; four drops of 0.1% aqueous solution, 37° C., after 15 minutes, initial 0.05 mmol/ml
  concentration of Transthyretin: not found
Hepatitis C; before treatment 2.0
  Albumin: 4.7 g/dL
Hepatitis C; before treatment 2.9
  Bilirubin: 1.7 mg/dL
Hepatitis C; before treatment 73.0
  Aspart aminotransferasis: 51.0 units/l
Hepatitis C; before treatment 77.0
  Alanine aminotransferasis: 71.4 units/l
Hepatitis C; before treatment 129.0
  Gammaglutamyl transferasis: 82.0 units/l
Hepatitis C; before treatment 543.5
  Lactate dehydrogenasis: 335.0 units/l

From patent publication US20090221708A1, “Medicinal preparation” (priority 2004, published 2009)
